Reference: patent US12606541B2, “PPARg modulators and methods of use” (Eisai R&D Management Co., Ltd., priority 2020, dated 2026)
Like-named read-outs stand apart in the source and are kept apart here.

What was measured:
His6-TEV-PPARγ-(234-505) = molecular target: T1, His6-TEV-PPARγ-(234-505) (Homo sapiens, UniProt P37231); assay: TR-FRET Assay to Measure Co-R Peptide Recruitment to PPARγ; format: biochemical; conditions: Co-R peptide (SMRT-ID2) recruitment; top final concentration 20 μM; read-out: TR-FRET i-Ag; AC50
T1 construct: The His6-TEV-PPARγ-(234-505) protein for assay was expressed and purified; TEV cleavage site (N); made in house
T1 sequence (P37231 234-505): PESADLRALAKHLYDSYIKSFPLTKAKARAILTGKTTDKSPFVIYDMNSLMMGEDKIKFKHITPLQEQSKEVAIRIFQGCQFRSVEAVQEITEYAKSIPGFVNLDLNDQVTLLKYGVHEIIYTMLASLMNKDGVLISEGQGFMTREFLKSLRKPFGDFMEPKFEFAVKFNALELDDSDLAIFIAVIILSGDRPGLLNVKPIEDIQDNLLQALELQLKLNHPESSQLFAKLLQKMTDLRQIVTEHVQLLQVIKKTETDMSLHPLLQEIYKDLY
How it was run: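 His-tagged PPARγ (or controls) was preincubated with compound for 20 minutes at room temperature, then 5 nM anti-His terbium antibody and 200 nM FITC-labeled SMRT-ID2 corepressor peptide (final) were added for a further hour. TR-FRET signal was normalized to percent response using 500 nM T0070907 and DMSO controls.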

UM-UC-9 engineered cells = assay: Cell proliferation / short-term viability assay, CellTiter-Glo 144 h; format: cell-based, human; conditions: read-out: CTGlo 144 h UMUC9.5, G150
How it was run: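 UM-UC-9 engineered assay-ready cells seeded at 500 cells/well in high-glucose DMEM/10% FBS, treated from dose-response plates, grown at 37° C, 5% CO2. CellTiter-Glo 2.0 luminescence read on day 7, with a day-0 pretreatment plate as T0 reference and DMSO wells as negative control.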

Row | Structure (SMILES) | AC50 (His6-TEV-PPARγ-(234-505)) | IC50 (UM-UC-9 engineered cells; Homo sapiens, UM-UC-9, 144 h) | IC50 (UM-UC-9 engineered cells)
1 | COc1cc(-c2cc(C(=O)N3CC[C@H](C(=O)Nc4cnn5ccc(C#N)nc45)CC34CC4)n[nH]2)c(F)cn1 [Example 487, (S)—N-(5-cyanopyrazolo[1,5-a]pyrimidin-3-yl)-4-(5-(5-fluoro-2-methoxypyridin-4-yl)-1H-pyrazole-3-carbonyl)-4-azaspiro[2.5]octane-7-carboxamide] | 0.7 nM | 2.4 nM | 
2 | COc1cc(-c2cc(C(=O)N3CC[C@H](C(=O)NC4CCN(c5ccc(C#N)nc5)C4)CC34CC4)n[nH]2)c(F)cn1 (stereo partly drawn) [Example 488, (7S)—N-(1-(6-cyanopyridin-3-yl)pyrrolidin-3-yl)-4-(5-(5-fluoro-2-methoxypyridin-4-yl)-1H-pyrazole-3-carbonyl)-4-azaspiro[2.5]octane-7-carboxamide] | 0.9 nM | 6.6 nM | 
3 | COc1cc(-c2cc(C(=O)N3CC[C@H](C(=O)NCc4ncc(OC(C)C)cc4Cl)CC34CC4)n[nH]2)c(F)cn1 [Example 491, (S)—N-((3-chloro-5-isopropoxypyridin-2-yl)methyl)-4-(5-(5-fluoro-2-methoxypyridin-4-yl)-1H-pyrazole-3-carbonyl)-4-azaspiro[2.5]octane-7-carboxamide] | 0.3 nM | 11 nM | 
4 | COc1cc(-c2cc(C(=O)N3CC[C@H](C(=O)Nc4cnn5cc(C(C)=O)ccc45)CC34CC4)n[nH]2)c(F)cn1 [Example 494, (S)—N-(6-acetylpyrazolo[1,5-a]pyridin-3-yl)-4-(5-(5-fluoro-2-methoxypyridin-4-yl)-1H-pyrazole-3-carbonyl)-4-azaspiro[2.5]octane-7-carboxamide] | 6.7 nM | 80.8 nM | 
5 | COc1cc(-c2cc(C(=O)N3CC[C@H](C(=O)NC4CCC5(COC5)c5cccnc54)CC34CC4)n[nH]2)c(F)cn1 (stereo partly drawn) [Example 496, (7S)—N-(7′,8′-dihydro-6′H-spiro[oxetane-3,5′-quinolin]-8′-yl)-4-(5-(5-fluoro-2-methoxypyridin-4-yl)-1H-pyrazole-3-carbonyl)-4-azaspiro[2.5]octane-7-carboxamide] | 9.6 nM | 68.2 nM | 
6 | CCN1CC(NC(=O)[C@H]2CCN(C(=O)c3cc(-c4cc(OC)ncc4F)[nH]n3)C3(CC3)C2)CCC12COC2 (stereo partly drawn) [Example 497, (7S)—N-(5-ethyl-2-oxa-5-azaspiro[3.5]nonan-7-yl)-4-(5-(5-fluoro-2-methoxypyridin-4-yl)-1H-pyrazole-3-carbonyl)-4-azaspiro[2.5]octane-7-carboxamide] | 87.7 nM | 645 nM | 
7 | COc1cc(-c2cc(C(=O)N3CC[C@H](C(=O)Nc4cnn5c4OC(C)(C)CC5)CC34CC4)n[nH]2)c(F)cn1 [Example 498, (S)—N-(5,5-dimethyl-6,7-dihydro-5H-pyrazolo[5,1-b][1,3]oxazin-3-yl)-4-(5-(5-fluoro-2-methoxypyridin-4-yl)-1H-pyrazole-3-carbonyl)-4-azaspiro[2.5]octane-7-carboxamide] | 2.9 nM | 21.9 nM | 
8 | COc1cc(-c2cc(C(=O)N3CC[C@H](C(=O)NCC45COC(CN)(C4)C5)CC34CC4)n[nH]2)c(F)cn1 [Example 499, (S)—N-((1-(aminomethyl)-2-oxabicyclo[2.1.1]hexan-4-yl)methyl)-4-(5-(5-fluoro-2-methoxypyridin-4-yl)-1H-pyrazole-3-carbonyl)-4-azaspiro[2.5]octane-7-carboxamide] | 294 nM | > 10000 nM | 
9 | COc1cc(-c2cc(C(=O)N3CC[C@H](C(=O)NCc4cccnc4C(F)(F)F)CC34CC4)[nH]n2)c(F)cn1 [Example 500, (S)-4-(3-(5-fluoro-2-methoxypyridin-4-yl)-1H-pyrazole-5-carbonyl)-N-((2-(trifluoromethyl)pyridin-3-yl)methyl)-4-azaspiro[2.5]octane-7-carboxamide] | 7.5 nM | 13.3 nM | 
10 | COc1cc(-c2cc(C(=O)N3CC[C@H](C(=O)NCc4[nH]cnc4C(F)(F)F)CC34CC4)[nH]n2)c(F)cn1 [Example 503, (S)-4-(3-(5-fluoro-2-methoxypyridin-4-yl)-1H-pyrazole-5-carbonyl)-N-((4-(trifluoromethyl)-1H-imidazol-5-yl)methyl)-4-azaspiro[2.5]octane-7-carboxamide] | 8.1 nM | 146 nM | 
11 | COc1cc(-c2cc(C(=O)N3CC[C@H](C(=O)NCc4conc4C(F)(F)F)CC34CC4)[nH]n2)c(F)cn1 [Example 505, (S)-4-(3-(5-fluoro-2-methoxypyridin-4-yl)-1H-pyrazole-5-carbonyl)-N-((3-(trifluoromethyl)isoxazol-4-yl)methyl)-4-azaspiro[2.5]octane-7-carboxamide] | 6.9 nM | 10.3 nM | 
12 | COc1cc(-c2cc(C(=O)N3CC[C@H](C(=O)NCc4c(C(F)(F)F)cnn4C)CC34CC4)[nH]n2)c(F)cn1 [Example 507, (S)-4-(3-(5-fluoro-2-methoxypyridin-4-yl)-1H-pyrazole-5-carbonyl)-N-((1-methyl-4-(trifluoromethyl)-1H-pyrazol-5-yl)methyl)-4-azaspiro[2.5]octane-7-carboxamide] | 17.4 nM | 14.1 nM | 
13 | COc1cc(-c2cc(C(=O)N3CC[C@H](C(=O)NCc4nnn(C)c4C(F)(F)F)CC34CC4)[nH]n2)c(F)cn1 [Example 508, (S)-4-(3-(5-fluoro-2-methoxypyridin-4-yl)-1H-pyrazole-5-carbonyl)-N-((1-methyl-5-(trifluoromethyl)-1H-1,2,3-triazol-4-yl)methyl)-4-azaspiro[2.5]octane-7-carboxamide] | 5.6 nM | 8.5 nM | 
14 | COc1cc(-c2cc(C(=O)N3CC[C@H](C(=O)NCc4cn(C)nc4C(F)(F)F)CC34CC4)[nH]n2)c(F)cn1 [Example 509, (S)-4-(3-(5-fluoro-2-methoxypyridin-4-yl)-1H-pyrazole-5-carbonyl)-N-((1-methyl-3-(trifluoromethyl)-1H-pyrazol-4-yl)methyl)-4-azaspiro[2.5]octane-7-carboxamide] | 4.2 nM | 7 nM | 
15 | COc1cc(-c2cc(C(=O)N3CC[C@H](C(=O)NCc4ncccc4C(F)(F)F)CC34CC4)[nH]n2)c(F)cn1 [Example 510, (S)-4-(3-(5-fluoro-2-methoxypyridin-4-yl)-1H-pyrazole-5-carbonyl)-N-((3-(trifluoromethyl)pyridin-2-yl)methyl)-4-azaspiro[2.5]octane-7-carboxamide] | 3.8 nM | 1.8 nM | 
16 | COc1cc(-c2cc(C(=O)N3CC[C@H](C(=O)NCc4ncc(F)cn4)CC34CC4)[nH]n2)c(F)cn1 [Example 512, (S)-4-(3-(5-fluoro-2-methoxypyridin-4-yl)-1H-pyrazole-5-carbonyl)-N-((5-fluoropyrimidin-2-yl)methyl)-4-azaspiro[2.5]octane-7-carboxamide] | 11.2 nM | 97.2 nM | 
17 | COc1cc(-c2cc(C(=O)N3CC[C@H](C(=O)NCc4cccnc4C(F)(F)F)CC34CC4)[nH]n2)c(F)cn1 [Example 513, (S)-4-(3-(5-fluoro-2-methoxypyridin-4-yl)-1H-pyrazole-5-carbonyl)-N-((2-(trifluoromethyl)pyridin-3-yl)methyl)-4-azaspiro[2.5]octane-7-carboxamide] | 6.1 nM |  | 15.4 nM
18 | COc1cc(-c2cc(C(=O)N3CC[C@H](C(=O)NCC45CC(C(F)(F)F)(C4)C5)CC34CC4)[nH]n2)c(F)cn1 [Example 515, (S)-4-(3-(5-fluoro-2-methoxypyridin-4-yl)-1H-pyrazole-5-carbonyl)-N-((3-(trifluoromethyl)bicyclo[1.1.1]pentan-1-yl)methyl)-4-azaspiro[2.5]octane-7-carboxamide] | 5 nM | 6 nM | 
19 | COc1cc(-c2cc(C(=O)N3CC[C@H](C(=O)NCc4cnccc4C(F)(F)F)CC34CC4)n[nH]2)c(F)cn1 [Example 516, (S)-4-(5-(5-fluoro-2-methoxypyridin-4-yl)-1H-pyrazole-3-carbonyl)-N-((4-(trifluoromethyl)pyridin-3-yl)methyl)-4-azaspiro[2.5]octane-7-carboxamide] | 3.3 nM | 10 nM | 
20 | COc1cc(-c2cc(C(=O)N3CC[C@H](C(=O)NCc4sc(C)nc4C(F)(F)F)CC34CC4)[nH]n2)c(F)cn1 [Example 517, (S)-4-(3-(5-fluoro-2-methoxypyridin-4-yl)-1H-pyrazole-5-carbonyl)-N-((2-methyl-4-(trifluoromethyl)thiazol-5-yl)methyl)-4-azaspiro[2.5]octane-7-carboxamide] | 7.9 nM | 20.3 nM | 
21 | COc1cc(-c2cc(C(=O)N3CC[C@H](C(=O)NCc4nccn4C(F)(F)F)CC34CC4)[nH]n2)c(F)cn1 [Example 519, (S)-4-(3-(5-fluoro-2-methoxypyridin-4-yl)-1H-pyrazole-5-carbonyl)-N-((1-(trifluoromethyl)-H-imidazol-2-yl)methy)-4-azaspiro[2.5]octane-7-carboxamide] | 4.3 nM | 19.1 nM | 
22 | COc1cc(-c2cc(C(=O)N3CC[C@H](C(=O)NC45COC(CO)(C4)C5)CC34CC4)n[nH]2)c(F)cn1 [Example 520, (S)-4-(5-(5-fluoro-2-methoxypyridin-4-yl)-1H-pyrazole-3-carbonyl)-N-(1-(hydroxymethyl)-2-oxabicyclo[2.1.1]hexan-4-yl)-4-azaspiro[2,5]octane-7-carboxamide] | 784 nM | > 10000 nM | 
